Test results taken from ChEMBL document CHEMBL4190168 (Medchemcomm, 2016).
Calls of active or inactive are those of the source. The rule behind the calls is not given here.

Tests used:
EA.hy 926 [1] = assay: Antiangiogenic activity in human EAhy926 cells assessed as inhibition of VEGF-induced capillary tube formation after 24 hrs by matrigel based phase contrast microscopic analysis; assay type: functional, cell-based
EA.hy 926 [2] = assay: Anti-migratory activity against human EAhy926 cells assessed as inhibition of VEGF-induced cell migration towards wound area after 24 hrs by phase contrast microscopic analysis; assay type: functional, cell-based
Chorioallantoic membrane = assay: Antiangiogenic activity in chicken fertilized egg chorioallantoic membrane at 30 uM after 48 hrs by microscopic analysis; assay type: functional, tissue-based; settings: Gallus gallus
[3] = Solubility of the compound in water; assay type: physicochemical

COc1ccc(-c2nc(CNCCCCCNCc3cc4c5ccccc5n(C)c4c(-c4ccc(OC)cc4)n3)cc3c4ccccc4n(C)c23)cc1
inhibition (EA.hy 926 [1]): Dose-dependent effect
inhibition (EA.hy 926 [2]): Dose-dependent effect
Activity (Chorioallantoic membrane): Active

Cl.Cn1c2ccccc2c2cc(CNCCCCCCNCc3cc4c5ccccc5n(C)c4c(-c4ccccc4)n3)nc(-c3ccccc3)c21
solubility [3]: > 10000 µg/mL

COc1ccc(-c2nc(CNCCCCNCc3cc4c([nH]c5ccccc54)c(-c4ccc(OC)cc4)n3)cc3c2[nH]c2ccccc23)cc1.Cl
solubility [3]: > 10000 µg/mL

Cl.Clc1ccc(-c2nc(CNCCCCCCNCc3cc4c5ccccc5n(Cc5ccccc5)c4c(-c4ccc(Cl)cc4)n3)cc3c4ccccc4n(Cc4ccccc4)c23)cc1
solubility [3]: > 10000 µg/mL

Cc1nc(CNCCCCNCc2cc3c4ccccc4n(C)c3c(C)n2)cc2c3ccccc3n(C)c12.Cl
solubility [3]: > 10000 µg/mL

COc1ccc(-c2nc(CNCCCCCCNCc3cc4c5ccccc5n(Cc5ccccc5)c4c(-c4ccc(OC)cc4)n3)cc3c4ccccc4n(Cc4ccccc4)c23)cc1.Cl
solubility [3]: > 10000 µg/mL

COc1ccc(-c2nc(CNCCCCCNCc3cc4c5ccccc5n(C)c4c(-c4ccc(OC)cc4)n3)cc3c4ccccc4n(C)c23)cc1.Cl
solubility [3]: > 10000 µg/mL
